The text below walks through data of PubChem BioAssay (NCI).

“And” between values parts separate entries of the source, which are not always exact repeats. Equal entries are not always repeated.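 96-well plates; 48 h exposure; 5 concentrations. Endpoints by linear interpolation between flanking doses. Not reached: highest tested concentration assigned. GI50: concentration for 50% inhibition of growth. TGI: concentration producing complete growth inhibition.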

Common to all, as to experiment: NCI tumour cell line growth inhibition, 48 h
Assay [1] concerns LOX IMVI melanoma.
In assay [2] the test system is NCI-H522 lung.
Assay [3] concerns HL-60(TB) leukemia.
Assay [4] has as its system SK-OV-3 ovarian.
Assay [5] concerns HCC-2998 colon.
Assay [6] concerns K-562 leukemia.
The test system of assay [7] is SF-295 CNS.
For assay [8], the system named is SK-MEL-5 melanoma.
Assay [9] has as its system EKVX NSCLC.
For assay [10], the system named is CAKI-1 renal.

Turning to `O=C(O)C12C3C4C1C1C2C3C1(Br)C41OCCO1` (stereo not drawn), the TGI in assay [1], in assay [2], in [3], in [4], in [5] and in assay [6] was above 100 µM each time. Also, the TGI in [7], in assay [8] and in assay [9] was above 100 µM throughout.

For the compound `C=CCNCCCN1C(=O)c2ccc3c4c(ccc(c24)C1=O)C(=O)N(CCCNCC=C)C3=O`, the GI50 in assay [1] is 0.316 µM; in [2] it was 0.336 µM; in assay [3], 0.383 µM; in [4], 0.775 µM; in assay [5], 0.428 µM; in assay [6], 0.296 µM. Also, the GI50 was 0.2 µM in assay [7], 0.182 µM in assay [8], 0.295 µM in [9] and 0.34 µM in [10]. For the same compound, the TGI in assay [1] is 0.97 µM; in [2], 1.34 µM; in [3] it was 1.41 µM; in assay [4], 3.61 µM; in [5], 1.54 µM; in assay [6] it was 1.48 µM. In addition, the TGI in assay [7] was determined as 0.955 µM; in assay [8], 0.395 µM; in assay [9] it was 1.09 µM; in assay [10], 1.97 µM.

On to `COc1ccc(C/C(C)=C(\c2ccc(OCCN3CCOCC3)cc2)c2ccc(OC(=O)Cc3ccccc3)cc2)cc1`, for which the GI50 in assay [1] was 0.56 µM; in [2] it was 0.564 µM; in assay [3], 0.553 µM; in assay [4], 0.978 µM; in assay [5] it was 0.668 µM; in [6] it was 0.456 µM. The GI50 in assay [7] is 0.58 µM; in [8], 0.485 µM; in assay [9], 0.851 µM; in [10], 0.729 µM. For the same compound, the TGI amounted to 1.03 µM in assay [1]; 1.08 µM in assay [2]; 1.26 µM in assay [3]; 4.45 µM in assay [4]; 1.49 µM in assay [5]; 1.66 µM in assay [6]. Further, the TGI was found to be 1.12 µM in assay [7], 0.93 µM in assay [8], 3.49 µM in assay [9] and 2.13 µM in assay [10].

Consider `N#C/C(=C1\NN=C(N)C(c2ccc(Cl)cc2)=C1O)c1ccc(Cl)cc1`, for which the TGI in [1], in [2], in [3], in assay [4], in [5] and in [6] was above 100 µM in each case. Also, the TGI in assay [7], in assay [9] and in assay [10] was above 100 µM throughout.

In the case of `CC(=O)Nc1ccccc1C=C1c2ccccc2-c2ccccc21`, the TGI is above 100 µM in [1]; above 100 µM in assay [2]; above 100 µM in assay [3]; above 100 µM in assay [5]; above 100 µM in [6]; 46.2 µM in assay [7]. Moreover, the TGI in assay [8], in [9] and in [10] was above 100 µM throughout.

For the compound `Cc1nn(-c2ccccc2)c2c1CC(=O)Nc1ccccc1-2`, the GI50 is 0.431 µM in assay [1]; 0.17 µM in assay [2]; 0.0203 µM in assay [3]; 0.332 µM in [4]; 0.624 µM and 0.222 µM in assay [5]; 0.044 µM in assay [6]. Further, the GI50 in assay [8] is 0.0879 µM; in assay [10], 0.346 µM. The TGI in [1] is above 100 µM; in assay [2] it was 3.75 µM and 0.593 µM; in assay [4], 43.8 µM; in [5] it was 7.54 µM and 2.49 µM; in [6], 0.721 µM; in [7], 3.06 µM. For the same compound, the TGI in assay [8] is 45.2 µM; in assay [10], above 100 µM.

For the compound `COC1(O)C(=O)c2ccccc2OC1(OC)c1ccccc1` (stereo not drawn), the TGI in assay [1], in assay [2], in assay [3], in assay [5], in assay [6] and in assay [7] was above 100 µM each time. Besides, the TGI in assay [8], in assay [9] and in assay [10] was above 100 µM in each case.

As for `O=C1/C(=C/c2ccc([N+](=O)[O-])o2)Oc2ccc(Br)cc21`, the GI50 was 1.82 µM in assay [1]; 1.88 µM in [2]; 6.7 µM in [3]; 17.6 µM in assay [4]; 8.01 µM in assay [5]; 1.92 µM in assay [6]. Also, the figures for the GI50 in assay [7], in assay [8] and in assay [10] were 17.1 µM, 2.67 µM and 2.31 µM, respectively. Also, the TGI in assay [1] is 3.55 µM; in assay [2], 3.35 µM; in [3], 25.7 µM; in assay [4], 32.2 µM; in assay [5], 27.5 µM; in assay [6], 4.59 µM. The results for the TGI in [7], in assay [8] and in assay [10] were 36.8 µM, 8.17 µM and 6.59 µM, respectively.

With `NC(=O)c1cc([N+](=O)[O-])c(Cl)c([N+](=O)[O-])c1`, the GI50 is 1.86 µM in [1]; 1.94 µM in assay [2]; 3.21 µM in [3]; 16.9 µM in [4]; 2.61 µM in [5]; 17.3 µM in assay [7]. For the same compound, the GI50 was 5.59 µM in assay [8], 17.4 µM in [9] and 2.59 µM in [10]. For the same compound, the TGI in [1] stood at 3.7 µM; in assay [2] it was 3.57 µM; in assay [3], 8.55 µM; in assay [4] it was 30.6 µM; in assay [5], 7.46 µM; in assay [7] it was 31.9 µM. Moreover, the TGI in [8] is 18 µM; in assay [9], 35.7 µM; in assay [10], 7.12 µM.
